From patent US6362369B1, “Phthalic acid diamide derivatives fluorine-containing aniline compounds as starting material, agricultural and horticultural insecticides, and a method for application of the insecticides” (Nihon Nohyaku Co., Ltd., priority 1997, dated 2002)

Columns and labels:
Type in all cases: in vivo
[1] = test system: rice leafroller (Cnaphalocrocis medinalis); experiment: Insecticidal effect on rice leafroller (Test Example 3); details: 500 ppm, 25° C., humidity 70%; for Insecticidal effect on rice leafroller (Test Example 3), judged grade / Insecticidal effect (Test Example 3), judged from mortality: rice lamina dip; for Insecticidal effect on rice leafroller (Test Example 3), judged grade: third-instar larvae; for Insecticidal effect on rice leafroller (Test Example 3), judged grade / Insecticidal effect, Test Example 3: four days after inoculation; for Insecticidal effect, Test Example 3: rice lamina immersed; for Insecticidal effect (Test Example 3), judged from mortality: 4 days after inoculation
Procedure, shortened: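 Insecticidal effect is judged by a predefined criterion from dead/alive counts four days after infesting air-dried lamina with third-instar larvae, kept on moistened filter paper at 25° C, 70% humidity.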

[2] = test system: diamondback moth (Plutella xylostella); experiment: Insecticidal effect on diamondback moth (Test Example 1); details: for Insecticidal effect on diamondback moth (Test Example 1), judged grade: mortality judged according to the criterion shown in Test Example 1; for Insecticidal effect, Test Example 1 / Insecticidal effect (Test Example 1), judged from mortality: diamondback moth; for Insecticidal effect (Test Example 1), judged from mortality: judged by the criterion of Test Example 1
Procedure, shortened: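 Oviposition by adults on Chinese cabbage seedling; immersion; air-dry; 25° C room. Count of hatched larvae at day 6 post-immersion → mortality → effect graded by criterion. Triplicate, 10 insects/group.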

[3] = test system: common cutworm (Spodoptera Litura); experiment: Insecticidal effect on common cutworm (Test Example 2); details: 500 ppm, 25° C.; for Insecticidal effect on common cutworm (Test Example 2), judged grade / Insecticidal effect (Test Example 2), judged from mortality: cabbage leaf dip; for Insecticidal effect on common cutworm (Test Example 2), judged grade: second-instar larvae; for Insecticidal effect on common cutworm (Test Example 2), judged grade / Insecticidal effect, Test Example 2: eight days after inoculation; for Insecticidal effect, Test Example 2: cabbage leaf immersed; for Insecticidal effect (Test Example 2), judged from mortality: 8 days after inoculation
Procedure, shortened: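 Air-dried treated material was placed in a closed dish with second-instar larvae and held at 25° C. Dead and live insects were counted eight days after inoculation, and mortality was calculated and scored against a fixed insecticidal-effect criterion. Three replicate groups of 10 insects were used.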

[4] = third-instar larvae of rice leafroller
[5] = judged by the mortality criterion of Test Example 1
[6] = second-instar larvae of common cutworm
[7] = rice leafroller third-instar larvae
[8] = mortality judged by criterion of Test Example 1
[9] = common cutworm second-instar larvae

SMILES | Insecticidal effect on rice leafroller (Test Example 3), judged grade [1] | Insecticidal effect on diamondback moth (Test Example 1), judged grade [2] | Insecticidal effect on common cutworm (Test Example 2), judged grade [3] | Insecticidal effect, Test Example 3 [1, 4] | Insecticidal effect, Test Example 1 [2, 5] | Insecticidal effect, Test Example 2 [3, 6] | further results
CC(C)NC(=O)c1c(Cl)cccc1C(=O)Nc1ccc(C=C(Cl)Cl)cc1 [compound 915] | A (100) | A (100) | A (100) | – | – | – | –
Cc1cc(Cl)ccc1NC(=O)c1ccc(F)cc1C(=O)NC(C)C [compound 529] | A (100) | A (100) | D (79-50) | – | – | – | –
CC(C)NC(=O)c1ccccc1C(=O)Nc1ccc(C(F)(F)C(F)(F)C(F)(F)F)cc1 [compound 27] | – | – | – | C (89-80) | A (100) | A (100) | –
Cc1cc(C(F)(F)F)ccc1NC(=O)c1cccc(Br)c1C(=O)NC(C)C [compound 277] | – | – | – | A (100) | A (100) | A (100) | –
Cc1cc(C(F)(F)C(F)(F)F)ccc1NC(=O)c1c(Cl)cccc1C(=O)N(C)Cc1ccccc1 [compound 1436] | – | – | – | – | – | – | Insecticidal effect, Test Example 3 [1, 7]: A (100); Insecticidal effect, Test Example 1 [2, 8]: A (100); Insecticidal effect, Test Example 2 [3, 9]: A (100)
Cc1cc(Oc2ccc(C(F)(F)F)cn2)ccc1NC(=O)c1ccccc1C(=O)NC(C)C [compound 78] | – | – | – | A (100) | A (100) | A (100) | –
Cc1cc(-c2ccc(C(F)(F)F)cc2)ccc1NC(=O)c1cccc(I)c1C(=O)NC(C)C [compound 1522] | – | – | – | – | – | – | Insecticidal effect (Test Example 3), judged from mortality [1, 4]: A (100); Insecticidal effect (Test Example 1), judged from mortality [2]: A (100); Insecticidal effect (Test Example 2), judged from mortality [3, 6]: A (100)
Cc1cc(C(F)(F)C(F)(F)C(F)(F)C(F)(F)F)ccc1NC(=O)c1cccc([N+](=O)[O-])c1C(=O)NC(C)C [compound 686] | A (100) | A (100) | A (100) | – | – | – | –
Cc1cc(F)ccc1NC(=O)c1cccc([N+](=O)[O-])c1C(=O)NC(C)C [compound 675] | A (100) | A (100) | A (100) | – | – | – | –
CC(C)NC(=O)c1c(Cl)cccc1C(=O)Nc1ccc(C(F)(F)F)cc1Cl [compound 125] | – | – | – | A (100) | A (100) | B (99-90) | –
CC(C)NC(=O)c1c(C(=O)Nc2ccc(OC(F)F)cc2)cccc1[N+](=O)[O-] [compound 617] | A (100) | A (100) | A (100) | – | – | – | –
CC(C)NC(=O)c1c(Cl)cccc1C(=O)Nc1ccc(C(F)(F)C(F)(F)C(F)(F)F)cc1 [compound 90] | – | – | – | B (99-90) | A (100) | A (100) | –
CCN(CC)C(=O)c1c(Cl)cccc1C(=O)Nc1ccc(OC(F)(F)F)cc1 [compound 1544] | – | – | – | – | – | – | Insecticidal effect (Test Example 3), judged from mortality [1, 4]: A (100); Insecticidal effect (Test Example 1), judged from mortality [2]: A (100); Insecticidal effect (Test Example 2), judged from mortality [3, 6]: A (100)
Cc1cc(SC(F)(F)C(F)(F)F)ccc1NC(=O)c1c(Cl)cccc1C(=O)NC(C)C [compound 908] | A (100) | A (100) | D (79-50) | – | – | – | –
CC(C)(C)NC(=O)c1c(I)cccc1C(=O)Nc1ccc(C(F)(F)C(F)(F)F)cc1C(F)(F)F [compound 1429] | – | – | – | – | – | – | Insecticidal effect, Test Example 3 [1, 7]: A (100); Insecticidal effect, Test Example 1 [2, 8]: A (100); Insecticidal effect, Test Example 2 [3, 9]: A (100)
CC(C)NC(=O)c1c(F)cccc1C(=O)Nc1ccc(C(F)(F)C(F)(F)F)cc1 [compound 891] | A (100) | A (100) | A (100) | – | – | – | –
CCC(C)NC(=O)c1c(I)cccc1C(=O)Nc1ccc(C(F)(F)C(F)(F)F)cc1C (stereo not drawn) [compound 1007] | – | – | – | – | – | – | Insecticidal effect, Test Example 3 [1, 7]: A (100); Insecticidal effect, Test Example 1 [2, 8]: A (100); Insecticidal effect, Test Example 2 [3, 9]: A (100)
CC(C)(C)NC(=O)c1c(Cl)cccc1C(=O)Nc1ccc(C(F)(F)C(F)(F)F)cc1Cl [compound 1449] | – | – | – | – | – | – | Insecticidal effect (Test Example 3), judged from mortality [1, 4]: A (100); Insecticidal effect (Test Example 1), judged from mortality [2]: A (100); Insecticidal effect (Test Example 2), judged from mortality [3, 6]: A (100)
Cc1cc(OC(F)(F)C(F)(Br)C(F)(F)F)ccc1NC(=O)c1ccccc1C(=O)NC(C)C (stereo not drawn) [compound 66] | – | – | – | B (99-90) | A (100) | A (100) | –
CCN(CC)C(=O)c1c(I)cccc1C(=O)Nc1ccc2c(c1)OC(F)C(F)(F)O2 (stereo not drawn) [compound 1151] | – | – | – | – | – | – | Insecticidal effect, Test Example 3 [1, 7]: A (100); Insecticidal effect, Test Example 1 [2, 8]: A (100); Insecticidal effect, Test Example 2 [3, 9]: A (100)
CC(C)NC(=O)c1c(I)cccc1C(=O)Nc1ccc(C(F)(F)C(F)(F)C(F)(F)F)cc1Cl [compound 407] | – | – | – | A (100) | A (100) | A (100) | –
